Assay results taken from ChEMBL document CHEMBL3046171, “Synthesis and biological evaluation of gallic acid analogs” (Med Chem Res, 2013).
Activity calls are given as the source filed them. The rule behind the calls is not given here.

Assays:
[1] = tested on: CHO; experiment: Cytotoxicity against Cricetulus griseus CHO (Chinese hamster ovary) cells assessed as frequency of first generation of mitotic cells at 100 uM treated for 3 hr by BrdU assay (reference value: 10%); assay type: cell-based
[2] = tested on: CHO; experiment: Antioxidant activity in Cricetulus griseus CHO (Chinese hamster ovary) cells assessed as protection against H2O2-induced chromosomal aberrations treated for 15 min prior to H2O2 addition measured after 2 hr by Giemsa staining; assay type: functional, cell-based
[3] = tested on: CHO; experiment: Cytotoxicity against Cricetulus griseus CHO (Chinese hamster ovary) cells assessed as frequency of first generation of mitotic cells at 50 uM treated for 3 hr by BrdU assay (reference value: 10%); assay type: cell-based
[4] = tested on: CHO; experiment: Genotoxicity in Cricetulus griseus CHO (Chinese hamster ovary) cells assessed as increase in frequencies of chromosomal aberrations bearing cells at 0.5 to 2 mM by Giemsa staining; assay type: toxicity, cell-based; conditions: 2000 µM
[5] = tested on: CHO; experiment: Cytotoxicity against Cricetulus griseus CHO (Chinese hamster ovary) cells assessed as mitotic index at 500 uM treated for 3 hr by Giemsa staining based light microscopic analysis relative to untreated control (reference value: 100%); assay type: cell-based
[6] = tested on: CHO; experiment: Genotoxicity in Cricetulus griseus CHO (Chinese hamster ovary) cells assessed as increase in frequencies of sister chromatid exchange bearing cells at 0.5 to 2 mM by fluorescence-plus-Giemsa technique; assay type: toxicity, cell-based; conditions: 2000 µM
[7] = tested on: CHO; experiment: Cytotoxicity against Cricetulus griseus CHO (Chinese hamster ovary) cells assessed as frequency of first generation of mitotic cells at 1000 uM treated for 3 hr by BrdU assay (reference value: 10%); assay type: cell-based
[8] = tested on: CHO; experiment: Cytotoxicity against Cricetulus griseus CHO (Chinese hamster ovary) cells assessed as mitotic index at 1000 uM treated for 3 hr by Giemsa staining based light microscopic analysis relative to untreated control (reference value: 100%); assay type: cell-based
[9] = tested on: CHO; experiment: Cytotoxicity against Cricetulus griseus CHO (Chinese hamster ovary) cells assessed as frequency of first generation of mitotic cells at 200 uM treated for 3 hr by BrdU assay (reference value: 10%); assay type: cell-based
[10] = tested on: CHO; experiment: Cytotoxicity against Cricetulus griseus CHO (Chinese hamster ovary) cells assessed as mitotic index at 50 uM treated for 3 hr by Giemsa staining based light microscopic analysis relative to untreated control (reference value: 100%); assay type: cell-based
[11] = tested on: CHO; experiment: Cytotoxicity against Cricetulus griseus CHO (Chinese hamster ovary) cells assessed as frequency of second generation of mitotic cells at 1000 uM treated for 3 hr by BrdU assay (reference value: 90%); assay type: cell-based
[12] = tested on: CHO; experiment: Genotoxicity in Cricetulus griseus CHO (Chinese hamster ovary) cells assessed as slight increase in frequencies of sister chromatid exchange bearing cells at 200 uM by fluorescence-plus-Giemsa technique; assay type: toxicity, cell-based
[13] = tested on: CHO; experiment: Cytotoxicity against Cricetulus griseus CHO (Chinese hamster ovary) cells assessed as proliferative replication index at 100 uM treated for 3 hr by BrdU assay relative to untreated control (reference value: 100%); assay type: cell-based
[14] = tested on: CHO; experiment: Cytotoxicity against Cricetulus griseus CHO (Chinese hamster ovary) cells assessed as mitotic index at 100 uM treated for 3 hr by Giemsa staining based light microscopic analysis relative to untreated control (reference value: 100%); assay type: cell-based
[15] = tested on: CHO; experiment: Cytotoxicity against Cricetulus griseus CHO (Chinese hamster ovary) cells assessed as frequency of second generation of mitotic cells at 200 uM treated for 3 hr by BrdU assay (reference value: 90%); assay type: cell-based
[16] = tested on: CHO; experiment: Antioxidant activity in Cricetulus griseus CHO (Chinese hamster ovary) cells assessed as proportion of H2O2-induced chromosomal aberrations bearing cells at 200 uM pre-incubated with H202 for 1 hr prior to cell addition by Giemsa staining; assay type: functional
[17] = tested on: CHO; experiment: Cytotoxicity against Cricetulus griseus CHO (Chinese hamster ovary) cells assessed as frequency of second generation of mitotic cells at 50 uM treated for 3 hr by BrdU assay (reference value: 90%); assay type: cell-based
[18] = tested on: CHO; experiment: Cytotoxicity against Cricetulus griseus CHO (Chinese hamster ovary) cells assessed as frequency of third generation of mitotic cells at 50 uM treated for 3 hr by BrdU assay (reference value: 0%); assay type: cell-based
[19] = tested on: CHO; experiment: Cytotoxicity against Cricetulus griseus CHO (Chinese hamster ovary) cells assessed as frequency of third generation of mitotic cells at 200 uM treated for 3 hr by BrdU assay (reference value: 0%); assay type: cell-based
[20] = tested on: CHO; experiment: Genotoxicity in Cricetulus griseus CHO (Chinese hamster ovary) cells assessed as effect on frequencies of chromosomal aberrations bearing cells at <200 uM by Giemsa staining; assay type: toxicity, cell-based
[21] = tested on: CHO; experiment: Cytotoxicity against Cricetulus griseus CHO (Chinese hamster ovary) cells assessed as proliferative replication index at 50 uM treated for 3 hr by BrdU assay relative to untreated control (reference value: 100%); assay type: cell-based
[22] = tested on: CHO; experiment: Cytotoxicity against Cricetulus griseus CHO (Chinese hamster ovary) cells assessed as frequency of second generation of mitotic cells at 100 uM treated for 3 hr by BrdU assay (reference value: 90%); assay type: cell-based
[23] = tested on: CHO; experiment: Cytotoxicity against Cricetulus griseus CHO (Chinese hamster ovary) cells assessed as mitotic index at 200 uM treated for 3 hr by Giemsa staining based light microscopic analysis relative to untreated control (reference value: 100%); assay type: cell-based
[24] = tested on: CHO; experiment: Genotoxicity in Cricetulus griseus CHO (Chinese hamster ovary) cells assessed as effect on frequencies of sister chromatid exchange bearing cells at <200 uM by fluorescence-plus-Giemsa technique; assay type: toxicity, cell-based
[25] = tested on: CHO; experiment: Cytotoxicity against Cricetulus griseus CHO (Chinese hamster ovary) cells assessed as proliferative replication index at 200 uM treated for 3 hr by BrdU assay relative to untreated control (reference value: 100%); assay type: cell-based
[26] = tested on: CHO; experiment: Cytotoxicity against Cricetulus griseus CHO (Chinese hamster ovary) cells assessed as frequency of third generation of mitotic cells at 1000 uM treated for 3 hr by BrdU assay (reference value: 0%); assay type: cell-based
[27] = tested on: CHO; experiment: Cytotoxicity against Cricetulus griseus CHO (Chinese hamster ovary) cells assessed as frequency of third generation of mitotic cells at 100 uM treated for 3 hr by BrdU assay (reference value: 0%); assay type: cell-based
[28] = tested on: CHO; experiment: Cytotoxicity against Cricetulus griseus CHO (Chinese hamster ovary) cells assessed as proliferative replication index at 1000 uM treated for 3 hr by BrdU assay relative to untreated control (reference value: 100%); assay type: cell-based

Structure (SMILES): COCCc1cc(O)c(O)c(O)c1
- Activity [1]: 18%
- Activity [2]: Active
- Activity [3]: 6%
- Activity [4]: Toxic
- Activity [5]: 15.6%
- Activity [6]: Toxic
- Activity [7]: 0%
- Activity [8]: 0%
- Activity [9]: 34%
- Activity [10]: 79.1%
- Activity [11]: 0%
- Activity [12]: Toxic
- Activity [13]: 96%
- Activity [14]: 80.8%
- Activity [15]: 66%
- Activity [16]: 5%
- Activity [17]: 94%
- Activity [18]: 0%
- Activity [19]: 0%
- Activity [20]: Non-toxic
- Activity [21]: 102%
- Activity [22]: 82%
- Activity [23]: 87.7%
- Activity [24]: Non-toxic
- Activity [25]: 87%
- Activity [26]: 0%
- Activity [27]: 0%
- Activity [28]: 0%

Structure (SMILES): OCCc1cc(O)c(O)c(O)c1 [3,4,5-TRIHYDROXYPHENETHYL ALCOHOL]
- Activity [1]: 25%
- Activity [2]: Active
- Activity [3]: 8%
- Activity [4]: Toxic
- Activity [5]: 4.3%
- Activity [6]: Toxic
- Activity [7]: 0%
- Activity [8]: 0%
- Activity [9]: 50%
- Activity [10]: 96.5%
- Activity [11]: 0%
- Activity [12]: Toxic
- Activity [13]: 92%
- Activity [14]: 99.1%
- Activity [15]: 50%
- Activity [16]: 5%
- Activity [17]: 92%
- Activity [18]: 0%
- Activity [19]: 0%
- Activity [20]: Non-toxic
- Activity [21]: 100%
- Activity [22]: 75%
- Activity [23]: 58.3%
- Activity [24]: Non-toxic
- Activity [25]: 79%
- Activity [26]: 0%
- Activity [27]: 0%
- Activity [28]: 0%
